In paper PMC6529808 (Metallomics : integrated biometal science, 2018):

Molecular target: MhuDCH (Mycobacterium tuberculosis, UniProt P9WKH3)
Format: binding
Details: second site (MhuD-diheme); 5 μM protein, 50 mM Tris pH 7.4, 150 mM NaCl

Sequence of MhuDCH (P9WKH3 whole entry): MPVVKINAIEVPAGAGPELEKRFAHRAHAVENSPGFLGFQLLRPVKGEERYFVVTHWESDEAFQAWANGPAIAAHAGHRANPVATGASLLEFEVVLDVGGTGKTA

Work on `C=CC1=C(C)C2=Cc3c(C=C)c(C)c4[n]3[Fe][n]3c(c(C)c(CCC(=O)O)c3=CC3=NC(=C4)C(C)=C3CCC(=O)O)=CC1=N2` [heme] yielded a Kd2 of 3.3 ± 1.1 µM.
